Assay results from PMC10112710 (Nature, 2022).
Positions count from the first letter of the chain named.

Columns and labels:
[1] = molecular target: T1, Drosophila Sestrin (Drosophila melanogaster, UniProt A0A0B4LGG4); assay type: binding; conditions: pH 7.4, on ice, 1 h; 150 mM KCl, 2.5 mM MgCl2, 0.1% Triton; Kd derived from IC50
T1 sequence (A0A0B4LGG4 1-467): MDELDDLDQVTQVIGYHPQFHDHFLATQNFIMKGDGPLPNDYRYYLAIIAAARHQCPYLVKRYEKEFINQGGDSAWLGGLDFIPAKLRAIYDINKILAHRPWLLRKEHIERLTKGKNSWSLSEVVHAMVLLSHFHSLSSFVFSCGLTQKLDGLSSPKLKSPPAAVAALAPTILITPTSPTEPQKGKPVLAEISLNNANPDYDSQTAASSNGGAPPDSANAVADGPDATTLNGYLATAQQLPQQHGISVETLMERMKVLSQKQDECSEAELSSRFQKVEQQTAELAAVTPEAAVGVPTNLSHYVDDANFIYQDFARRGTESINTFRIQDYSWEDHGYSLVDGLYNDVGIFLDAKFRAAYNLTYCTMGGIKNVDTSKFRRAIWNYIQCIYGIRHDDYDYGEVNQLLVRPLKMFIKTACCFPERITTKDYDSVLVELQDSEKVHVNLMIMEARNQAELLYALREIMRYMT

[2] = molecular target: T2, Drosophila Sestrin (Drosophila melanogaster, UniProt A0A0B4LGG4, L431E); assay: [3H]-leucine binding on immunopurified HA-tagged Sestrin; conditions: pH 7.4, on ice, 1 h; labelled compound; no binding detected
T2 sequence (A0A0B4LGG4 1-467 L431E): T1 sequence (A0A0B4LGG4 1-467) with L431E

Kd [1]: ~100 µM
Structure (SMILES): CC(C)C[C@H](N)C(=O)O [leucine]
does not bind [2]: fly Sestrin L431E does not bind leucine (Fig. 1b)
